Measured values as given in patent US8080251B2, “Antigenic peptides” (Centre for DNA Fingerprinting and Diagnostics, priority 2004, dated 2011).

B1: rRv2608: 59.6 kDa recombinant M. tuberculosis PPE_MPTR protein Rv2608, expressed in E. coli BL21 as 6×His-tag fusion protein (protein)
chain: MNFAVLPPEVNSARIFAGAGLGPMLAAASAWDGLAEELHAAAGSFASVTTGLAGDAWHGPASLAMTRAASPYVGWLNTAAGQAAQAAGQARLAASAFEATLAATVSPAMVAANRTRLASLVAANLLGQNAPAIAAAEAEYEQIWAQDVAAMFGYHSAASAVATQLAPIQEGLQQQLQNVLAQLASGNLGSGNVGVGNIGNDNIGNANIGFGNRGDANIGIGNIGDRNLGIGNTGNWNIGIGITGNGQIGFGKPANPDVLVVGNGGPGVTALVMGGTDSLLPLPNIPLLEYAARFITPVHPGYTATFLETPSQFFPFTGLNSLTYDVSVAQGVTNLHTAIMAQLAAGNEVVVFGTSQSATIATFEMRYLQSLPAHLRPGLDELSFTLTGNPNRPDGGILTRFGFSIPQLGFTLSGATPADAYPTVDYAFQYDGVNDFPKYPLNVFATANAIAGILFLHSGLIALPPDLASGVVQPVSSPDVLTTYILLPSQDLPLLVPLRAIPLLGNPLADLIQPDLRVLVELGYDRTAHQDVPSPFGLFPDVDWAEVAADLQQGAVQGVNDALSGLGLPPPWQPALPRLF
modifications: left off: small tags and cut ends

Assays:
[1] = tested on: serum IgG antibodies (patient sera); assay: ELISA of serum IgG antibody response of TB patients to rRv2608 protein / synthetic peptides; format: binding, human; settings: for Reactivity with patient sera: TB patient sera, ELISA; for Mean (O.D. at 492 nm): humoral response, antigen 2 μg/ml
[2] = tested on: peripheral blood mononuclear cells (PBMCs); assay: Lymphocyte (T cell) proliferation assay, MTT readout; format: cell-based, human; settings: comparison between patient categories / between peptides
[3] = Category I patients (TB diagnosed for the first time, n=22)
[4] = Category II patients (relapsed TB, n=21)
[5] = Category III patients (extrapulmonary TB, n=8)

| Molecule | Reactivity with patient sera [1] | Mean (O.D. at 492 nm) [1, 3] | Mean (O.D. at 492 nm) [1, 4] | Mean (O.D. at 492 nm) [1, 5] | T cell proliferative response [2] | T cell proliferative response ([2]; listed as Peptide 2) | T cell proliferative response ([2]; listed as peptide 2) | Serum reactivity of extrapulmonary TB patients ([1]; Category III compared to Category I or II) | Serum reactivity compared with Hsp10 ([1]; all patient categories, p>0.05) | Serum reactivity of healthy controls ([1]; healthy controls (n=10) vs patients, p=0.0002) |
| --- | --- | --- | --- | --- | --- | --- | --- | --- | --- | --- |
| GIGNIGDRNLGIK (listed as Mycobacterium tuberculosis) [Peptide P1d, 13-residue overlapping peptide, component of peptide 1] | react equally well with patient sera | 0.482 | 0.787 | 0.527 |  |  |  |  |  |  |
| DNIGNANIGFGNRGDANIGIGNIGDRNLGIGNTGNWK (listed as Mycobacterium tuberculosis) [Peptide P1] | strongly react with patient sera | 0.412 | 0.675 | 0.483 |  |  |  |  |  |  |
| RGDANIGIGNIGK (listed as Mycobacterium tuberculosis) [Peptide P1c, 13-residue overlapping peptide, component of peptide 1] | react equally well with patient sera | 0.416 | 0.810 | 0.380 |  |  |  |  |  |  |
| NIGFGNRGDANIK (listed as Mycobacterium tuberculosis) [Peptide P1b, 13-residue overlapping peptide, component of peptide 1] | react equally well with patient sera | 0.469 | 0.775 | 0.520 |  |  |  |  |  |  |
| DRNLGIGNTGNWK (listed as Mycobacterium tuberculosis) [Peptide P1e, 13-residue overlapping peptide, component of peptide 1] | react equally well with patient sera | 0.407 | 0.711 | 0.405 |  |  |  |  |  |  |
| LSFTLTGNPNRPK (listed as Mycobacterium tuberculosis) [Peptide P2b, 13-residue overlapping peptide, part of peptide 2] | react equally well with patient sera | 0.450 | 0.498 | 0.422 |  |  |  |  |  |  |
| DNIGNANIGFGNK (listed as Mycobacterium tuberculosis) [Peptide P1a, 13-residue overlapping peptide, component of peptide 1] | react equally well with patient sera | 0.426 | 0.770 | 0.473 |  |  |  |  |  |  |
| RPGLDELSFTLTK (listed as Mycobacterium tuberculosis) [Peptide P2a, 13-residue overlapping peptide, part of peptide 2] | react equally well with patient sera | 0.473 | 0.689 | 0.392 |  |  |  |  |  |  |
| GNPNRPDGGILTK (listed as Mycobacterium tuberculosis) [Peptide P2c, 13-residue overlapping peptide, part of peptide 2] | react equally well with patient sera | 0.491 | 0.632 | 0.410 | comparatively higher T cell response |  |  |  |  |  |
| RPGLDELSFTLTGNPNRPDGGILTK (listed as Mycobacterium tuberculosis) [Peptide P2] | strongly react with patient sera | 0.480 | 0.706 | 0.441 | comparatively higher T cell response | higher response in fresh infection cases | fresh infection cases>relapsed TB>extrapulmonary TB cases |  |  |  |
| B1 |  |  |  |  |  |  |  | less reactivity | equal to or higher than the response to Hsp10 | significantly less when compared to that of patients |
